From PubChem BioAssay AID256 (DTP/NCI, 2004) come the findings set out here.

Molecules are shown by their SMILES. Values joined by “and” are separate entries in the source; they are usually repeats but may differ in a detail not shown here. Equal values may be shown once. Toxic doses and inconclusive results are not listed.

This experiment deals with CD2F1 mice, L1210 leukemia ip, survival T/C. Briefly: NCI In Vivo Anticancer Drug Screen. Data for tumor model L1210 Leukemia (intraperitoneal) in CD2F1 (CDF1) mice. To be noted: higher = longer survival. In short, it runs like this:
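Vehicle-treated tumor-bearing mice served as controls (C) for compound-treated mice (T). Reported figure is T divided by C.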

Setting [1] is: endpoint: mean survival time, dose: 100.0 mg/kg/injection, schedule: Q04DX002 (ip), vehicle: saline with Tween-80.
The mark [2] stands for this setting: endpoint: mean survival time, dose: 200.0 mg/kg/injection, schedule: Q04DX002 (ip), vehicle: saline with Tween-80.
The mark [3] stands for this setting: endpoint: mean survival time, dose: 100.0 mg/kg/injection, schedule: Q04DX003 (ip), vehicle: saline with Tween-80.
The mark [4] stands for this setting: endpoint: mean survival time, dose: 200.0 mg/kg/injection, schedule: Q04DX003 (ip), vehicle: saline with Tween-80.
Where [5] appears, read: endpoint: mean survival time, dose: 100.0 mg/kg/injection, schedule: Q01DX001 (ip), vehicle: saline with Tween-80.
[6] abbreviates: endpoint: mean survival time, dose: 200.0 mg/kg/injection, schedule: Q01DX001 (ip), vehicle: saline with Tween-80.
The mark [7] stands for this setting: endpoint: mean survival time, dose: 12.5 mg/kg/injection, schedule: Q01DX009 (ip), vehicle: saline with Tween-80.
Setting [8] is: endpoint: mean survival time, dose: 25.0 mg/kg/injection, schedule: Q01DX009 (ip), vehicle: saline with Tween-80.
Where [9] appears, read: endpoint: mean survival time, dose: 50.0 mg/kg/injection, schedule: Q01DX009 (ip), vehicle: saline with Tween-80.
The mark [10] stands for this setting: endpoint: mean survival time, dose: 100.0 mg/kg/injection, schedule: Q01DX009 (ip), vehicle: saline with Tween-80.
The mark [11] stands for this setting: endpoint: mean survival time, dose: 200.0 mg/kg/injection, schedule: Q01DX009 (ip), vehicle: saline with Tween-80.
Where [12] appears, read: endpoint: mean survival time, dose: 400.0 mg/kg/injection, schedule: Q01DX009 (ip), vehicle: saline with Tween-80.

In the case of `CCCCCCCCc1ccc(NNC(N)=S)cc1`, the T/C is, setting by setting: (endpoint: mean survival time, dose: 1.56 mg/kg/injection, schedule: Q01DX009 (ip), vehicle: saline) 93 % of control and 98 % of control and 101 % of control; (endpoint: mean survival time, dose: 3.12 mg/kg/injection, schedule: Q01DX009 (ip), vehicle: saline) 96 % of control (2×) and 106 % of control; (endpoint: mean survival time, dose: 6.25 mg/kg/injection, schedule: Q01DX009 (ip), vehicle: saline) 96 % of control and 97 % of control and 104 % of control; (endpoint: mean survival time, dose: 12.5 mg/kg/injection, schedule: Q01DX009 (ip), vehicle: saline) 97 % of control (2×) and 101 % of control.

Consider `Nc1ccc(S(=O)(=O)c2ccc(Nc3ccccc3)c(N)c2)cc1`, for which the T/C under setting [1] was 97 % of control; the T/C under setting [2] is 94 % of control; the T/C (endpoint: mean survival time, dose: 400.0 mg/kg/injection, schedule: Q04DX002 (ip), vehicle: saline with Tween-80) was 97 % of control.

`O=C1c2cc([N+](=O)[O-])ccc2-c2cc(Br)ccc21`: the T/C reads like this: under setting [3], 99 % of control; under setting [4], 91 % of control.

As to `C=CC(=O)OCCCS(=O)(=O)[O-].C=CC(=O)OCCCS(=O)(=O)[O-].NC1CCCCC1N.[Pt+4]`, the T/C is, setting by setting: (endpoint: median survival time, dose: 3.12 mg/kg/injection, schedule: Q04DX003 (ip), vehicle: saline with Tween-80) 108 % of control; (endpoint: median survival time, dose: 6.25 mg/kg/injection, schedule: Q04DX003 (ip), vehicle: saline with Tween-80) 119 % of control and 109 % of control; (endpoint: median survival time, dose: 12.5 mg/kg/injection, schedule: Q04DX003 (ip), vehicle: saline with Tween-80) 119 % of control and 109 % of control; (endpoint: median survival time, dose: 25.0 mg/kg/injection, schedule: Q04DX003 (ip), vehicle: saline with Tween-80) 113 % of control and 120 % of control; (endpoint: median survival time, dose: 100.0 mg/kg/injection, schedule: Q04DX003 (ip), vehicle: saline with Tween-80) 158 % of control and 168 % of control; (endpoint: median survival time, dose: 200.0 mg/kg/injection, schedule: Q04DX003 (ip), vehicle: saline with Tween-80) 204 % of control and 301 % of control.

Turning to `O=C1CC(=O)C(CCc2cccc3ccccc23)C1=O` (configuration not stated), the T/C by setting is: under setting [5], 86 % of control; under setting [1], 100 % of control; under setting [6], 94 % of control; under setting [2], 93 % of control; (endpoint: mean survival time, dose: 400.0 mg/kg/injection, schedule: Q01DX001 (ip), vehicle: saline with Tween-80) 105 % of control.

As to `CCO/C=C1\SC(=S)N(c2ccccc2OC)C1=O`, the T/C reads like this: under setting [3], 107 % of control; under setting [4], 102 % of control; (endpoint: mean survival time, dose: 400.0 mg/kg/injection, schedule: Q04DX003 (ip), vehicle: saline with Tween-80) 107 % of control.

As to `CN(C)c1ccc(N=Cc2cc[n+](C)cc2)cc1`, the T/C runs as follows: (endpoint: mean survival time, dose: 25.0 mg/kg/injection, schedule: Q04DX003 (ip), vehicle: saline) 98 % of control; (endpoint: mean survival time, dose: 50.0 mg/kg/injection, schedule: Q04DX003 (ip), vehicle: saline) 102 % of control; (endpoint: mean survival time, dose: 100.0 mg/kg/injection, schedule: Q04DX003 (ip), vehicle: saline) 102 % of control.

Take `O=C1C2C3C=CC(C2C(=O)N1CO)C1C2C(=O)N(CO)C(=O)C2C31` (configuration not stated): the T/C is 104 % of control (endpoint: median survival time, dose: 6.25 mg/kg/injection, schedule: Q01DX009 (ip), vehicle: water); 107 % of control (endpoint: median survival time, dose: 12.5 mg/kg/injection, schedule: Q01DX009 (ip), vehicle: water); 124 % of control (endpoint: median survival time, dose: 25.0 mg/kg/injection, schedule: Q01DX009 (ip), vehicle: water); 190 % of control and 214 % of control (endpoint: median survival time, dose: 50.0 mg/kg/injection, schedule: Q01DX009 (ip), vehicle: water); 100 % of control (endpoint: median survival time, dose: 83.3 mg/kg/injection, schedule: Q01DX009 (ip), vehicle: water).

Consider `Cc1ncc([N+](=O)[O-])n1CCSC(N)=O`, for which the T/C is, setting by setting: under setting [7], 103 % of control; under setting [8], 96 % of control; under setting [9], 102 % of control; under setting [10], 100 % of control; under setting [11], 100 % of control; under setting [12], 100 % of control.

As for `OC12CC3CC(CC(C3)C1)C2`, the T/C (endpoint: mean survival time, dose: 50.0 mg/kg/injection, schedule: Q01DX001 (ip), vehicle: saline with Tween-80) is 104 % of control; the T/C under setting [5] was 116 % of control; the T/C under setting [6] was 98 % of control.

`CN(C)c1nc(N)c2nonc2n1`: the T/C (endpoint: mean survival time, dose: 12.5 mg/kg/injection, schedule: Q01DX005 (ip), vehicle: other) is 97 % of control; the T/C (endpoint: mean survival time, dose: 25.0 mg/kg/injection, schedule: Q01DX005 (ip), vehicle: other) was 97 % of control; the T/C (endpoint: mean survival time, dose: 50.0 mg/kg/injection, schedule: Q01DX005 (ip), vehicle: other) is 92 % of control; the T/C (endpoint: mean survival time, dose: 100.0 mg/kg/injection, schedule: Q01DX005 (ip), vehicle: other) was 97 % of control; the T/C (endpoint: mean survival time, dose: 200.0 mg/kg/injection, schedule: Q01DX005 (ip), vehicle: other) is 95 % of control.

With `Clc1ccc(CN2COc3c(ccc4cccnc34)C2)cc1Cl`, the T/C is 95 % of control and 97 % of control under setting [7]; 92 % of control and 105 % of control under setting [8]; 94 % of control and 105 % of control under setting [9]; 103 % of control and 110 % of control under setting [10]; 95 % of control under setting [11]; 94 % of control under setting [12].

Consider `c1c2c(cc3c1OCO3)CNCC2`, for which the T/C (endpoint: mean survival time, dose: 100.0 mg/kg/injection, schedule: Q01DX001 (ip), vehicle: saline) was 102 % of control.
